ChEMBL document CHEMBL1157656, “Fragment-based deconstruction of Bcl-xL inhibitors” (J Med Chem, 2010)
Structures can show the parent of a compound that is named as a salt.

Experiments:
[1] = target: T1, Bcl-2-like protein 1 (Homo sapiens, UniProt Q07817); assay: Inhibition of Bcl-xL
[2] = target: T1, Bcl-2-like protein 1; assay: Binding affinity to 6xHis-tagged human Bcl-xL
[3] = target: T1, Bcl-2-like protein 1; assay: Inhibition of Bcl-xL expressed in Saccharomyces cerevisiae

T1 sequence (Q07817 whole entry): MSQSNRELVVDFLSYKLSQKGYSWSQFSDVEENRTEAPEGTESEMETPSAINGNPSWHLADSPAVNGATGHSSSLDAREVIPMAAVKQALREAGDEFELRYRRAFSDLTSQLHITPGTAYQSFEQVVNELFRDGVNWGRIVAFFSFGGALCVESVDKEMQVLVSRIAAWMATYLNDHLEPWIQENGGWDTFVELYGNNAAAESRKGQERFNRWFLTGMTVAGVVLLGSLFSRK

With `Cc1cc2c(C(C)C)c(O)c(O)c(C=O)c2c(O)c1-c1c(C)cc2c(C(C)C)c(O)c(O)c(C=O)c2c1O` [GOSSYPOL] the IC50 [1] was 0.48 µM.

`Oc1ccccc1-c1ccccc1` [2-PHENYLPHENOL] was tested, and the Kd [2] was 2700 µM.

`COC1=CC(c2cc3ccccc3[nH]2)=N/C1=C\c1[nH]c(C)cc1C` [OBATOCLAX MESYLATE] showed an IC50 [3] of 4.69 µM.
